From patent US20030212034A1, “Method of treatment of obesity and paralyzed muscle and ergogenic aids” (priority 2002, published 2003) come the findings set out here.

Holding throughout (type): in vivo, rat
For experiment [1], the system named is carnitine palmitoyl-transferase. In words: Muscle carnitine palmitoyl-transferase activity after chronic AICAR injection. Particulars: chronic AICAR 1 mg/g daily 4 wk. The protocol: (§1) To determine the effect of chronic injection of AICAR on muscle enyzme activities or expression and on muscle GLUT4, rats were injected subcutaneously (between 8 and 10 a.m.) with AICAR (1 mg/g) or saline vehicle daily for 28±1 days in succession. Beginning with the first injection, controls were pair fed with AICAR-injected rats. Rats were anesthetized by intraperitoneal injection of pentobarbital sodium 22-25 hours after the last AICAR injection and the white and red regions of the quadriceps and the soleus muscles were removed and frozen as described above. Muscles were kept frozen at −70° C. until analyzed. Liver, heart, kidney, and fat pads were weighed.
(§2) For enzyme activity measurements, 10% homogenates were made from the respective muscles in 175 mM KCl, 10 mM GSH, 2 mM EDTA, pH 7.4. This homogenate was frozen and thawed 3 times and mixed thoroughly prior to enzymatic measurements. For succinate dehydrogenase and lactate dehydrogenase, an aliquot of the homogenate was centrifuged at 700×g for 10 min at 4° C. The remainder of the assays were performed on aliquots and dilutions of the mixed whole homogenate. Assays were performed by the following methods: citrate synthase, succinate dehydrogenase, the mitochondrial fraction of malate dehydrogenase, hexokinase, lactate dehydrogenase, carnitine palmitoyl transferase and hydroxyacyl-CoA dehydrogenase. Srere, P. A. Methods in Enzymology 13:3-6, 1969; King, T. E. Methods Enzymol 10:322-335, 1967; Shonk, C. E. & G. E. Boxer, Cancer Res. 24:709-721, 1964; Uyeda, K., & E. Racker, J. Biol Chem 240:4682-4688, 1965; Pesce, A., et al. J. Biol. Chem. 239:1753-1761, 1964; Baldwin, K. M., et al. Am. J. Physiol 222:373-378, 1972; Mole, P. A., et al. J. Clin. Invest. 50:2323-2330, 1971; Kobayashi, A. et al. J. Biochem. 119:775-782, 1996.

Experiment [2] deals with hydroxyacyl-CoA dehydrogenase. The experiment is described as follows: Muscle hydroxyacyl-CoA dehydrogenase activity after chronic AICAR injection. The settings on record: chronic AICAR 1 mg/g daily 4 wk. Here is the method: as §1, §2
In another experiment the test system is GLUT4. The experiment is described as follows: GLUT4 western blot in 3-day denervated and contralateral muscles after AICAR injections. The protocol: Rats were anesthetized with ether and the sciatic nerve of the right hindlimb was severed. The left hindlimb was sham operated to serve as a control. Both skin wounds were closed with a metal clips. The rats used for the acute study were also implanted with a jugular catheter which was exteriorized on the back of the neck at the time of denervation for rapid administration of anesthesia.
Muscle was ground to a powder under liquid nitrogen and homogenized ([…]) in HEPES buffer [25 mM HEPES, 1 mM EDTA, 1 mM benzamadine, 1 mM 4-(2-aminoethyl)-benzene+sulfonyl fluoride, 1 μM leupeptin, 1 μM antitrypsin, 1 μM aprotinin, pH 7.5]. This homogenate was then diluted with water and Laemmli's buffer (1 mL homogenate:2 mL water: 1 mL buffer) immediately before loading. 20 μL of this homogenate were then loaded onto a 10% SDS-PAGE mini gel (Tris-HCl ready gels, BioRad, Hercules, Calif.). Samples were subjected to electrophoresis at 200 V for 45 minutes. Proteins were transferred from gel to nitrocellulose membrane at 100V for 50 minutes. Membranes were blocked in 5% non-fat milk (BioRad, Hercules, Calif.) in PBST (139 mM NaCl, 2.7 mM KH2PO4, 9.9 mM Na2HPO4, and 0.05% Tween-20) and were then left overnight with GLUT4 polyclonal antibody (Biogenesis, Kingston, N.H.) in 5% dried milk solution (1:5000 dilution). After washing twice in PBST, and twice in PBS (139 mM NaCl, 2.7 mM KH2PO4, 9.9 mM Na2HPO4), the membranes were exposed to horseradish peroxidase-conjugated donkey anti-rabbit IgG (Amersham Life Sciences, Arlington Heights, Ill.) for 1 h. at room temperature. After again washing twice with PBST and twice with PBS, the membranes were incubated in enhanced chemoluminescence-detection reagent and then visualized on enhanced chemoluminescence hyperfilm (Amersham Life Sciences). Relative amounts of GLUT4 were then quantified using a Hewlett Packard Scan Jet 6200C and SigmaGel software (SPSS, Chicago, Ill.). Western blot data are expressed as arbitrary units where individual values were divided by the mean basal GLUT4 value (sham operated leg/injected with 0.9%/NaCl solution).
Rats were injected either with AICAR (1 mg in 0.9% NaCl/g body weight) or a 0.9% NaCl solution ˜0, ˜24, and ˜48 hours after denervation and were then sacrificed ˜72 hours after denervation without injection. Rats were anesthetized with sodium pentobarbital (4.8 mg/100 g. body weight), soleus and gastrocnemius muscles from both sham and denervated sides were extracted, and muscles were quick frozen in liquid nitrogen and stored for analysis.
Rats were denervated as described above between 8:00 and 10:00 and were immediately injection with either 0.9% NaCl solution (n=4), 0.1 mg AICAR in 0.9% NaCl/g body weight (n=4), 0.5 mg AICAR in 0.9% NaCl/g body weight (n=3), or 1 mg AICAR in 0.9% NaCl/g body weight (n=4). Rats of each treatment group were subsequently injected with the respective AICAR solutions at ˜24 and ˜48 hours after denervation. Rats were killed ˜72 hours after denervation without an AICAR injection and muscles were collected as described above.

As to `NC(=O)c1ncn([C@@H]2O[C@H](CO)[C@@H](O)[C@H]2O)c1N` [AICAR, 5-aminoimidazole-4-carboxamide-1-β-D-ribofuranoside], the values for the CPT activity in experiment [1] (red quadriceps), in experiment [1] (soleus) and in experiment [1] (white quadriceps) were 0.46 ± 0.02 µmol/g/min, 0.62 ± 0.02 µmol/g/min and 0.16 ± 0.01 µmol/g/min, respectively. Besides, the HADH activity was 9.0 ± 0.4 µmol/g/min in experiment [2] (red quadriceps), 4.6 ± 0.4 µmol/g/min in experiment [2] (soleus) and 4.6 ± 0.3 µmol/g/min in experiment [2] (white quadriceps). In addition, the “GLUT4 content, percent intensity of saline-treated contralateral innervated controls” value was 130.1% in the experiment with GLUT4 (contralateral innervated gastrocnemius, AICAR 1 mg/g for 3 days) and 106.6% in the experiment with GLUT4 (denervated gastrocnemius, AICAR 1 mg/g for 3 days, saline denervated 60.1%). Moreover, the “dose dependent response of GLUT4 vs saline-treated denervated gastrocnemius” value in the experiment with GLUT4 (denervated gastrocnemius, doses 0.1, 0.5, 1 mg/g, result for the 1 mg/g dose, FIG. 11) was “only dose that significantly raises GLUT4 content”. For the same compound, the “increase of GLUT4 vs. saline-treated denervated gastrocnemius controls” value in the experiment with GLUT4 (denervated gastrocnemius, subcutaneous AICAR injections) is reported as 80%. Further, the “GLUT4 content, percent of saline-treated contralateral controls” value in the experiment with GLUT4 (denervated soleus, AICAR 1 mg/g for 3 days, saline denervated 72.6%, not significant) is on record as 85.4%. The “dose dependent response of GLUT4 vs saline-treated innervated gastrocnemius” value with GLUT4 (innervated gastrocnemius, doses 0.1, 0.5, 1 mg/g, result for the 1 mg/g dose, FIG. 11) is “only dose that significantly raises GLUT4 content”.
